What was measured:
UO-31 = assay: NCI in vitro screen, SRB percent growth, Renal Cancer
COLO 205 = assay: NCI in vitro screen, SRB percent growth, Colon Cancer
OVCAR-8 = assay: NCI in vitro screen, SRB percent growth, Ovarian Cancer
IGROV1 = assay: as above
OVCAR-5 = assay: as above
CAKI-1 = assay: NCI in vitro screen, SRB percent growth, Renal Cancer
HCT-15 = assay: NCI in vitro screen, SRB percent growth, Colon Cancer
SNB-78 = assay: NCI in vitro screen, SRB percent growth, CNS Cancer
HCC-2998 = assay: cells; conditions: Homo sapiens
NCI-H460 = assay: NCI in vitro screen, SRB percent growth, Non-Small Cell Lung Cancer
EKVX = assay: cells; conditions: Homo sapiens
NCI-H23 = assay: NCI in vitro screen, SRB percent growth, Non-Small Cell Lung Cancer
SK-MEL-5 = assay: NCI in vitro screen, SRB percent growth, Melanoma
ACHN = assay: NCI in vitro screen, SRB percent growth, Renal Cancer
SW-620 = assay: cells; conditions: Homo sapiens
SK-MEL-2 = assay: NCI in vitro screen, SRB percent growth, Melanoma
[1] = Log10 Concentration -4.0, 100 µM
[2] = Log10 Concentration -7.0, 0.1 µM
[3] = HCC 2998, read-out: Percent Growth
[4] = SW-620, read-out: Percent Growth

COc1ccc2[nH]c3c(C)c4c(c(C)c3c2c1)CN(C)C=C4 [Formula VII]
Percent Growth (UO-31; [1]): 10%
Percent Growth (UO-31; Log10 Concentration -5.0): 83%
Percent Growth (UO-31; Log10 Concentration -6.0, 1 µM): 101%
Percent Growth (UO-31; [2]): 112%
Percent Growth (UO-31; Log10 Concentration -8.0): 119%
TGI (UO-31; PG=0): > 100 µM
GI50 (UO-31; PG=+50): 28.4 µM
CC50 (UO-31; read-out: LC-50, PG=-50): > 100 µM
Percent Growth (COLO 205; [1]): -72%
Percent Growth (COLO 205; [2]): 91%
Percent Growth (COLO 205; Log10 Concentration -8.0): 99%
TGI (COLO 205; PG=0): 5.6 µM
GI50 (COLO 205; PG=+50): 1.42 µM
CC50 (COLO 205; read-out: LC-50, PG=-50): 37.1 µM
Percent Growth (OVCAR-8; [1]): -17%
Percent Growth (OVCAR-8; Log10 Concentration -5.0): 5%
Percent Growth (OVCAR-8; Log10 Concentration -6.0, 1 µM): 28%
Percent Growth (OVCAR-8; [2]): 67%
Percent Growth (OVCAR-8; Log10 Concentration -8.0): 72%
TGI (OVCAR-8; PG=0): 16.6 µM
GI50 (OVCAR-8; PG=+50): 0.274 µM
CC50 (OVCAR-8; read-out: LC-50, PG=-50): > 100 µM
Percent Growth (IGROV1; [1]): -20%
Percent Growth (IGROV1; Log10 Concentration -5.0): 14%
Percent Growth (IGROV1; Log10 Concentration -6.0, 1 µM): 47%
Percent Growth (IGROV1; [2]): 80%
Percent Growth (IGROV1; Log10 Concentration -8.0): 105%
TGI (IGROV1; PG=0): 25.3 µM
GI50 (IGROV1; PG=+50): 0.819 µM
CC50 (IGROV1; read-out: LC-50, PG=-50): > 100 µM
Percent Growth (OVCAR-5; [1]): -10%
Percent Growth (OVCAR-5; Log10 Concentration -5.0): 70%
Percent Growth (OVCAR-5; Log10 Concentration -6.0, 1 µM): 119%
Percent Growth (OVCAR-5; [2]): 136%
Percent Growth (OVCAR-5; Log10 Concentration -8.0): 133%
TGI (OVCAR-5; PG=0): 75.5 µM
GI50 (OVCAR-5; PG=+50): 17.8 µM
CC50 (OVCAR-5; read-out: LC-50, PG=-50): > 100 µM
Percent Growth (CAKI-1; [1]): -11%
Percent Growth (CAKI-1; Log10 Concentration -5.0): 38%
Percent Growth (CAKI-1; Log10 Concentration -6.0, 1 µM): 83%
Percent Growth (CAKI-1; [2]): 107%
Percent Growth (CAKI-1; Log10 Concentration -8.0): 110%
TGI (CAKI-1; PG=0): 60.7 µM
GI50 (CAKI-1; PG=+50): 5.5 µM
CC50 (CAKI-1; read-out: LC-50, PG=-50): > 100 µM
Percent Growth (HCT-15; [1]): 16%
Percent Growth (HCT-15; Log10 Concentration -5.0): 96%
Percent Growth (HCT-15; Log10 Concentration -6.0, 1 µM): 111%
Percent Growth (HCT-15; [2]): 114%
Percent Growth (HCT-15; Log10 Concentration -8.0): 118%
TGI (HCT-15; PG=0): > 100 µM
GI50 (HCT-15; PG=+50): 37.7 µM
CC50 (HCT-15; read-out: LC-50, PG=-50): > 100 µM
Percent Growth (SNB-78; [1]): -26%
Percent Growth (SNB-78; Log10 Concentration -5.0): -18%
Percent Growth (SNB-78; Log10 Concentration -6.0, 1 µM): 41%
Percent Growth (SNB-78; [2]): 98%
Percent Growth (SNB-78; Log10 Concentration -8.0): 98%
TGI (SNB-78; PG=0): 4.9 µM
GI50 (SNB-78; PG=+50): 0.683 µM
CC50 (SNB-78; read-out: LC-50, PG=-50): > 100 µM
GI50 (HCC-2998; HCC 2998): 4.74 µM
CC50 (HCC-2998; HCC 2998, read-out: LC-50): 43.9 µM
activity at 0.01 µM (HCC-2998; [3]): 111%
activity at 0.1 µM (HCC-2998; [3]): 90%
activity at 1 µM (HCC-2998; [3]): 98%
activity at 10 µM (HCC-2998; [3]): 27%
activity at 100 µM (HCC-2998; [3]): -93%
IC (TGI) (HCC-2998; HCC 2998, read-out: TGI): 16.8 µM
Percent Growth (NCI-H460; [1]): -71%
Percent Growth (NCI-H460; Log10 Concentration -6.0, 1 µM): 67%
Percent Growth (NCI-H460; [2]): 85%
Percent Growth (NCI-H460; Log10 Concentration -8.0): 93%
TGI (NCI-H460; PG=0): 9.4 µM
GI50 (NCI-H460; PG=+50): 1.78 µM
CC50 (NCI-H460; read-out: LC-50, PG=-50): 49.5 µM
GI50 (EKVX): 0.774 µM
activity at 0.01 µM (EKVX; read-out: Percent Growth): 114%
activity at 0.1 µM (EKVX; read-out: Percent Growth): 108%
activity at 1 µM (EKVX; read-out: Percent Growth): 43%
activity at 10 µM (EKVX; read-out: Percent Growth): 3%
activity at 100 µM (EKVX; read-out: Percent Growth): -11%
IC (TGI) (EKVX; read-out: TGI): 16.5 µM
Percent Growth (NCI-H23; [1]): -48%
Percent Growth (NCI-H23; Log10 Concentration -5.0): -26%
Percent Growth (NCI-H23; Log10 Concentration -6.0, 1 µM): 39%
Percent Growth (NCI-H23; [2]): 97%
Percent Growth (NCI-H23; Log10 Concentration -8.0): 112%
TGI (NCI-H23; PG=0): 4.02 µM
GI50 (NCI-H23; PG=+50): 0.648 µM
CC50 (NCI-H23; read-out: LC-50, PG=-50): > 100 µM
Percent Growth (SK-MEL-5; [1]): -53%
Percent Growth (SK-MEL-5; Log10 Concentration -5.0): -53%
Percent Growth (SK-MEL-5; Log10 Concentration -6.0, 1 µM): 75%
Percent Growth (SK-MEL-5; [2]): 94%
Percent Growth (SK-MEL-5; Log10 Concentration -8.0): 99%
TGI (SK-MEL-5; PG=0): 3.85 µM
GI50 (SK-MEL-5; PG=+50): 1.56 µM
CC50 (SK-MEL-5; read-out: LC-50, PG=-50): 9.49 µM
Percent Growth (ACHN; [1]): -4%
Percent Growth (ACHN; Log10 Concentration -5.0): 79%
Percent Growth (ACHN; Log10 Concentration -6.0, 1 µM): 102%
Percent Growth (ACHN; [2]): 113%
Percent Growth (ACHN; Log10 Concentration -8.0): 113%
TGI (ACHN; PG=0): 89.1 µM
GI50 (ACHN; PG=+50): 22.4 µM
CC50 (ACHN; read-out: LC-50, PG=-50): > 100 µM
GI50 (SW-620; SW-620): 1.05 µM
CC50 (SW-620; SW-620, read-out: LC-50): > 100 µM
activity at 0.01 µM (SW-620; [4]): 89%
activity at 0.1 µM (SW-620; [4]): 77%
activity at 1 µM (SW-620; [4]): 51%
activity at 10 µM (SW-620; [4]): 18%
activity at 100 µM (SW-620; [4]): -39%
IC (TGI) (SW-620; SW-620, read-out: TGI): 20.4 µM
Percent Growth (SK-MEL-2; [1]): -91%
Percent Growth (SK-MEL-2; Log10 Concentration -5.0): -23%
Percent Growth (SK-MEL-2; Log10 Concentration -6.0, 1 µM): 110%
Percent Growth (SK-MEL-2; [2]): 137%
Percent Growth (SK-MEL-2; Log10 Concentration -8.0): 125%
TGI (SK-MEL-2; PG=0): 6.69 µM
GI50 (SK-MEL-2; PG=+50): 2.83 µM
CC50 (SK-MEL-2; read-out: LC-50, PG=-50): 24.7 µM

— patent publication US5441941A, “1,2-dihydroellipticines with activity against CNS specific cancer” (The United States of America as represented by the …, priority 1993, dated 1995)
